± gives the standard deviation of the averaged measurements.
What was measured:
Details in all cases: 72 h
U2OS [1] = test: cell viability relative to DMSO; higher = less toxic
Caco-2 [2] = test: as above
Vero E6 [3] = test: as above
HepG2 [4] = test: as above
U2OS [5] = test: relative viability EC50 (midpoint between 100% and the lowest measured viability); higher = less toxic
Caco-2 [6] = test: as above
Vero E6 [7] = test: as above
HepG2 [8] = test: as above
U2OS [9] = test: drug sensitivity score (DSS) for viability; higher = more toxic; extreme values may be limits of the assay
Caco-2 [10] = test: as above
Vero E6 [11] = test: as above
HepG2 [12] = test: as above
Calu-3 [13] = test: cell viability relative to DMSO; higher = less toxic
Calu-3 [14] = test: relative viability EC50 (midpoint between 100% and the lowest measured viability); higher = less toxic
Calu-3 [15] = test: drug sensitivity score (DSS) for viability; higher = more toxic; extreme values may be limits of the assay

Compound	cell viability (U2OS [1]; 1 nM) [%]	cell viability (U2OS [1]; 10 nM) [%]	cell viability (U2OS [1]; 100 nM) [%]	cell viability (U2OS [1]; 1000 nM) [%]	cell viability (U2OS [1]; 10000 nM) [%]	cell viability (Caco-2 [2]; 1 nM) [%]	cell viability (Caco-2 [2]; 10 nM) [%]	cell viability (Caco-2 [2]; 100 nM) [%]	cell viability (Caco-2 [2]; 1000 nM) [%]	cell viability (Caco-2 [2]; 10000 nM) [%]	cell viability (Vero E6 [3]; 1 nM) [%]	cell viability (Vero E6 [3]; 10 nM) [%]	cell viability (Vero E6 [3]; 100 nM) [%]	cell viability (Vero E6 [3]; 1000 nM) [%]	cell viability (Vero E6 [3]; 10000 nM) [%]	cell viability (HepG2 [4]; 1 nM) [%]	cell viability (HepG2 [4]; 10 nM) [%]	cell viability (HepG2 [4]; 100 nM) [%]	cell viability (HepG2 [4]; 1000 nM) [%]	cell viability (HepG2 [4]; 10000 nM) [%]	relative viability EC50 (U2OS [5]) [µM]	relative viability EC50 (Caco-2 [6]) [µM]	relative viability EC50 (Vero E6 [7]) [µM]	relative viability EC50 (HepG2 [8]) [µM]	drug sensitivity score (U2OS [9])	drug sensitivity score (Caco-2 [10])	drug sensitivity score (Vero E6 [11])	drug sensitivity score (HepG2 [12])	cell viability (Calu-3 [13]; 1 nM) [%]	cell viability (Calu-3 [13]; 10 nM) [%]	cell viability (Calu-3 [13]; 100 nM) [%]	cell viability (Calu-3 [13]; 1000 nM) [%]	cell viability (Calu-3 [13]; 10000 nM) [%]	relative viability EC50 (Calu-3 [14]) [µM]	drug sensitivity score (Calu-3 [15])
S=C(NC1CCCCC1)N1CCC(c2cnc[nH]2)CC1 [thioperamide]	100	96.2	98.7	93.1	96.4	98.7	99.4	92.7	103	95.4	103	103	96.5	94.3	95.9	108	97.3	104	100	92.7	> 10	> 10	> 10	> 10	0	0	0	0	–	–	–	–	–	–	–
O=S(=O)(c1cccc2c(Cl)cccc12)N1CCCNCC1 [ML9]	95.5	93.3	96.9	102	103	94.5	91.6	97.3	88	87.7	89	96.9	87.9	96.8	94.1	96.3	96.5	90.8	93.3	74.7	> 10	> 10	> 10	–	0	0.1	0	1.5	110	104	110	99.9	98.9	> 10	0
Cc1ncc(CO)c(/C=N/NC(=O)c2ccncc2)c1O [pyridoxal-isonicotinoyl-hydrazone]	95.8	97.4	95.8	93	102	102	108	93.3	100	100	100	94.2	92.5	97.4	109	–	–	–	–	–	> 10	> 10	> 10	–	0	0	0	–	90.1	99.4	102	103	92	> 10	0
O=C(CN1CCN(C(=O)c2ccco2)CC1)Nc1cc(C(F)(F)F)ccc1Cl [ML348]	–	–	–	–	–	96.3	89	97	96.1	91.1	98.4	98.8	94	98.3	94.6	96.9	98	93.1	106	104	–	> 10	> 10	> 10	–	0	0	0	118	95.7	102	104	95.5	> 10	0
CSc1nc(NC2CCCC2)c([N+](=O)[O-])c(NC2CCCC2)n1	102	103	98.9	106	97.2	99	97	102	93.7	95.7	110	98.3	107	96.4	97	–	–	–	–	–	> 10	> 10	> 10	–	0	0	0	–	94.6	94.2	106	96.9	90.1	> 10	0
CCNC(=O)[C@H]1O[C@@H](n2cnc3c(N)nc(NCCc4ccc(CCC(=O)O)cc4)nc32)[C@H](O)[C@@H]1O	–	–	–	–	–	99.1	101	92.1	96.4	97.3	104	109	98.8	97.9	95.8	96.2	102	116	97	96.7	–	> 10	> 10	> 10	–	0	0	0	95.7	99.2	99.5	113	98.9	> 10	0
COC(=O)Nc1nc2cc(C(=O)c3cccs3)ccc2[nH]1 [nocodazole]	105	110	70.4	46	24.3	102	105	73.6	54.1	40.6	105	108	64.8	30.7	26.8	114	103	85.6	40	40.2	0.252	0.174	0.103	0.159	13.6	11.8	17.9	13.3	103	105	73.8	65.4	54.9	–	10.6
C[C@H](CCC(=O)O)[C@H]1CC[C@H]2[C@@H]3C(=O)C[C@@H]4CC(=O)CC[C@]4(C)[C@H]3CC(=O)[C@]12C [dehydrocholate-acid]	101 ± 2.8	96.9 ± 2.8	98.3 ± 1.3	96 ± 2.3	97.6 ± 0.14	95.5 ± 1.1	84 ± 19	96.2 ± 5.6	94.2 ± 6.7	93.2 ± 16	97.8 ± 0.57	102 ± 5.9	91.2 ± 6.6	94 ± 8	103 ± 7.6	95.8 ± 7.3	102 ± 5.5	95.05 ± 0.21	103 ± 1.1	102 ± 7.3	> 10	> 10	> 10	> 10	0	0	0	0	–	–	–	–	–	–	–
O=C(O)c1cc(O)c2c(c1)[C@H]([C@H]1c3cc(C(=O)O)cc(O)c3C(=O)c3c(O[C@@H]4O[C@H](CO)[C@@H](O)[C@H](O)[C@H]4O)cccc31)c1cccc(O[C@@H]3O[C@H](CO)[C@@H](O)[C@H](O)[C@H]3O)c1C2=O [sennoside-A]	94	100	96.5	96.6	88.3	79.8	100	88	82.1	123	112	93.1	95.9	98.8	101	90.2	91.7	89.6	103	92.4	> 10	> 10	> 10	> 10	0	0	0	0	95.3	96.8	90.1	91	67.3	–	2.3
O=C(O)[C@H](O)[C@@H](O)[C@H](O[C@@H]1O[C@H](CO)[C@H](O)[C@H](O)[C@H]1O)[C@H](O)CO [maltobionic-acid]	93.6	103	97.8	102	101	89.3	101	85.6	97.9	115	94.3	89.8	94.4	88	101	–	–	–	–	–	> 10	> 10	> 10	–	0	0	0	–	103	106	101	100	99.7	> 10	0
Cc1nc2c(OCc3ccccc3)cccn2c1CC#N	98	102	100	95.3	98.2	97.9	91.1	107	100	93.6	92.4	93.3	95.8	95.1	103	106	107	95.9	106	97.5	> 10	> 10	> 10	> 10	0	0	0	0	–	–	–	–	–	–	–
O=C1Nc2ccccc2/C1=C1/Nc2ccccc2C1=O [indirubin]	–	–	–	–	–	101	100	109	94.8	105	101	96.4	97.5	97.7	98.1	110	110	97.8	94	93.6	–	> 10	> 10	> 10	–	0	0	0	116	104	109	93.1	119	> 10	0
CCN1CCN(C(=O)N[C@@H](C(=O)N[C@@H]2C(=O)N3[C@@H]2SC(C)(C)[C@@H]3C(=O)O)c2ccccc2)C(=O)C1=O [piperacillin]	97	94	93.9	102	103	93.8	91.1	97.8	103	106	97.2	99.1	97.7	96.5	110	114	113	104	103	95.5	> 10	> 10	> 10	> 10	0	0	0	0	–	–	–	–	–	–	–
CCOc1ccccc1N/N=C1/C(=O)N(c2nc(-c3ccccc3)cs2)N=C1C [BAM7]	–	–	–	–	–	94.6	105	88.2	103	88.7	98.8	101	95.2	95.2	94.8	106	96.2	99.1	92.2	82.6	–	> 10	> 10	> 10	–	0	0	0.9	96.5	95.8	83.7	97.3	99.6	> 10	0
O=C(O)c1ccc(S(=O)(=O)N(Cc2ccc(OC(F)(F)F)cc2)c2ncc(C(F)(F)F)cc2Cl)cc1	99.4	95.1	97.3	96.2	97.2	96.7	92.3	90.6	96.5	104	104	95.9	99.3	96.5	88.9	104	108	95.3	99.8	95.6	> 10	> 10	> 10	> 10	0	0	0.1	0	–	–	–	–	–	–	–
CCn1cc(C(=O)O)c(=O)c2ccc(-c3ccncc3)cc21 [rosoxacin]	101	96.6	99.2	97.8	99.9	102	98	96.3	98.6	95.7	99.8	102	89.1	103	103	94.7	97.8	97.5	94.6	111	> 10	> 10	> 10	> 10	0	0	0	0	–	–	–	–	–	–	–
